Experimental data as given in US20240139333A1, “2,6-DICHLOROPHENYL ESTER COMPOUNDS AND USE THEREOF” (Fusion Pharmaceuticals Inc., priority 2021, published 2024).

Assays:
[1] = Competitive reactivity study between L-Lysine and HOPO nucleophile; settings: L-Lysine 5 eq. / 1,2-HOPO 1 eq.
Protocol: (§1) General Experimental Protocol for Competitive Reactivity Study with L-Lysine and HOPO or HOA Nucleophiles
(§2) To a 4 mL scintillation vial containing Compound A (1 eq.) was added a stir bar followed by 70 μL of HPLC grade acetonitrile followed by a respective HOPO or HOA nucleophile (1 eq). In another 4 mL scintillation vial containing L-Lysine monohydrochloride (5 eq.) was added 130 μL HPLC grade water followed by diisopropylethylamine (5 eq.). The solutions were combined and allowed to stir at room temperature (22±2° C.) for 4 hours. Timed aliquots at time (T)=15, 30, 60, 120 and 240 minutes were taken and analyzed by HPLC-MS using elution method 1 (Table 7)

[2] = Competitive reactivity study between L-Lysine and HOA nucleophile; settings: L-Lysine 5 eq. / N-Hydroxy-N-methyl benzamide 1 eq
Protocol: as §1, §2

[3] = Active ester reactivity study with amino acids (N-Acetyl-L-Cysteine); settings: N-Acetyl-L-Cysteine 5 eq., 22±2° C.
Protocol: (§3) General Experimental Protocol for Nucleophilic Reactivity Study with Amino Acids
as §2, with “A or C” for “A”, “acetonitrile.” for “acetonitrile followed by a respective HOPO or HOA nucleophile (1 eq).”, “a respective amino acid (1-5” for “L-Lysine monohydrochloride (5”, “6).” for “7)”

[4] = Active ester reactivity study with amino acids (Z-Ser-OH); settings: Z-Ser-OH 1 eq., 22±2° C.
Protocol: as §3
as §2, with “A or C” for “A”, “acetonitrile.” for “acetonitrile followed by a respective HOPO or HOA nucleophile (1 eq).”, “a respective amino acid (1-5” for “L-Lysine monohydrochloride (5”, “6).” for “7)”

[5] = Comparative active ester reactivity study with HOA nucleophile (benzhydroxamic acid); settings: Benzhydroxamic Acid 1 eq., 22±2° C.
Protocol: General Experimental Protocol for Comparative Active Ester Reactivity Study with HOPO or HOA Nucleophiles
To a 4 mL scintillation vial containing Compound A-E (in respective experiments; 1 eq.) was added a stir bar followed by 150 μL of HPLC grade acetonitrile. In another 4 mL scintillation vial containing a respective nucleophile (1 eq.) was added 280 μL HPLC grade water. The solutions were combined and allowed to stir at room temperature (22±2° C.) for 4 hours. Timed aliquots at time (T)=15, 30, 60, 120 and 240 minutes were taken and analyzed by HPLC-MS using elution method 1 (Table 1).

## O=C(CCc1cccnc1)Oc1c(Cl)cccc1Cl [Compound A, 2,6-Dichlorophenyl-3-(pyridin-3-yl)propanoate]
[1]; 15 min
  % Compound A Remaining: (88.33) %
[1]; 30 min
  % Compound A Remaining: (74.52) %
[1]; 60 min
  % Compound A Remaining: (28.29) %
[1]; 120 min
  % Compound A Remaining: (2.01) %
[1]; 240 min
  % Compound A Remaining: (0) %
[2]; 15 min
  % Compound A Remaining: (65.77) %
[2]; 30 min
  % Compound A Remaining: (14.83) %
[2]; 60 min
  % Compound A Remaining: (1.63) %
[2]; 120 min
  % Compound A Remaining: (0) %
[3]; 15 min
  % Active Ester Remaining: 100%
[3]; 30 min
  % Active Ester Remaining: 99.86%
[3]; 60 min
  % Active Ester Remaining: 99.84%
[3]; 120 min
  % Active Ester Remaining: 99.70%
[3]; 240 min
  % Active Ester Remaining: 82.52%
[4]; 15 min
  % Active Ester Remaining: 97.56%
[4]; 30 min
  % Active Ester Remaining: 97.14%
[4]; 60 min
  % Active Ester Remaining: 96.30%
[4]; 120 min
  % Active Ester Remaining: 93.35%
[4]; 240 min
  % Active Ester Remaining: 91.55%
[5]; 15 min
  % Active Ester Remaining: 97.05%
[5]; 30 min
  % Active Ester Remaining: 95.97%
[5]; 60 min
  % Active Ester Remaining: 92.36%
[5]; 120 min
  % Active Ester Remaining: 86.65%
[5]; 240 min
  % Active Ester Remaining: 78.07%

## O=C(CCc1cccnc1)Oc1c(F)c(F)cc(F)c1F [Compound C, 2,3,5,6-Tetrafluorophenyl-3-(pyridin-3-yl)propanoate]
[3]; 15 min
  % Active Ester Remaining: 95.12%
[3]; 30 min
  % Active Ester Remaining: 91.95%
[3]; 60 min
  % Active Ester Remaining: 85.25%
[3]; 120 min
  % Active Ester Remaining: 56.62%
[3]; 240 min
  % Active Ester Remaining: 0%
[4]; 15 min
  % Active Ester Remaining: 41.75%
[4]; 30 min
  % Active Ester Remaining: 28.90%
[4]; 60 min
  % Active Ester Remaining: 10.96%
[4]; 120 min
  % Active Ester Remaining: 2.89%
[4]; 240 min
  % Active Ester Remaining: 0.12%
[5]; 15 min
  % Active Ester Remaining: 58.86%
[5]; 30 min
  % Active Ester Remaining: 45.60%
[5]; 60 min
  % Active Ester Remaining: 32.39%
[5]; 120 min
  % Active Ester Remaining: 18.88%
[5]; 240 min
  % Active Ester Remaining: 9.26%
